Measured values reported in ChEMBL document CHEMBL1133287, “Preparation and evaluation of 1,3-diaminocyclopentane-linked dihydropyrimidinone derivatives as selective alpha1a-receptor antagonists” (Bioorg Med Chem Lett, 2000).

Assays:
Assay type in all cases: cell-based
[1] = molecular target: T1, Alpha-1D adrenergic receptor (Homo sapiens, UniProt P25100); test: Displacement of [125I]HEAT from human Alpha-1D adrenergic receptor stably expressed in HL cells
T1 sequence (P25100 whole entry): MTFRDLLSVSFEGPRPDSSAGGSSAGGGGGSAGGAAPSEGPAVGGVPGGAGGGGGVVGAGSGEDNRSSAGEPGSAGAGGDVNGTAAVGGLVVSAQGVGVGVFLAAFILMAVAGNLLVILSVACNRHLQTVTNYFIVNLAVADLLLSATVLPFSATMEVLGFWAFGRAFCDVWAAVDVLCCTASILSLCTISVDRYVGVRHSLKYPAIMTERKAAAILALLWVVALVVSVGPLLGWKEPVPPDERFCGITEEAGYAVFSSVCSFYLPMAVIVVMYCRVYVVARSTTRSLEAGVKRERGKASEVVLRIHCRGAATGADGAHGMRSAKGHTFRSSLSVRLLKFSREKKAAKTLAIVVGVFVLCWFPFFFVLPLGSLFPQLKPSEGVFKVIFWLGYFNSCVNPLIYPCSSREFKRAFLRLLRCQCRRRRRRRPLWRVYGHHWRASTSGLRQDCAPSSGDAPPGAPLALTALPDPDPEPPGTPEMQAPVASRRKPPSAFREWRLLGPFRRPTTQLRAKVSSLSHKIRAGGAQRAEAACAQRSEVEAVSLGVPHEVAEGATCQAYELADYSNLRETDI

[2] = molecular target: T2, Alpha-1A adrenergic receptor (Homo sapiens, UniProt P35348); test: Displacement of [125I]HEAT from human Alpha-1A adrenergic receptor stably expressed in CHO cells
T2 sequence (P35348 whole entry): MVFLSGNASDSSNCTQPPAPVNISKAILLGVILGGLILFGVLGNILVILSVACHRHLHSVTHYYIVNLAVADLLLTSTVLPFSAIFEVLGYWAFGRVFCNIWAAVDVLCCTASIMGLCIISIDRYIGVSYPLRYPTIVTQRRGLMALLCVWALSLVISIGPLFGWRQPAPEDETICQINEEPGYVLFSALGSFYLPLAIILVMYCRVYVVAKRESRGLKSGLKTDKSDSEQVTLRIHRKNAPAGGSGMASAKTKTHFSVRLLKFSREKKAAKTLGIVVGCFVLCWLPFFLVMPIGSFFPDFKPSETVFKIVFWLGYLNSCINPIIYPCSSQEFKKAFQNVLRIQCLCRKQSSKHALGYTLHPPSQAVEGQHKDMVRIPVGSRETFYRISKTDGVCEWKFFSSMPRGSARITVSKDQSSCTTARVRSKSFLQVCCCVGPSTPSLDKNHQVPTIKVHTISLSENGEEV

[3] = molecular target: T3, Alpha-1B adrenergic receptor (Homo sapiens, UniProt P35368); test: Displacement of [125I]HEAT from human Alpha-1B adrenergic receptor stably expressed in LM cells
T3 sequence (P35368 whole entry): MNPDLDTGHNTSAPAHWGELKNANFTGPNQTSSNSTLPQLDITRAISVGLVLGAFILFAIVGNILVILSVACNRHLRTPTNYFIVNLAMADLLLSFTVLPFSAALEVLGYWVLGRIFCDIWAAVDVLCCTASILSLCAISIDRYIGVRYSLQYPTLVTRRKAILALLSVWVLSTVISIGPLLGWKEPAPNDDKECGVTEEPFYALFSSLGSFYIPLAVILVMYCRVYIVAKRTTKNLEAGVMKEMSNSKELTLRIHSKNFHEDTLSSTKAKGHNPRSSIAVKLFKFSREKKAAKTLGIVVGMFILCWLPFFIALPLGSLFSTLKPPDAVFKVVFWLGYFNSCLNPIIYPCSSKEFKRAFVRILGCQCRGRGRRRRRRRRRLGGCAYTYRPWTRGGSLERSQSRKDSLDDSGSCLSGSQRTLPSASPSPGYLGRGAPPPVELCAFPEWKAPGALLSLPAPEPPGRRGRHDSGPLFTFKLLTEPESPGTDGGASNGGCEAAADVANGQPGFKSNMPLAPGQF

Row | Ki [1] [µM] | Ki [2] [µM] | Ki [3] [µM] | SMILES
1 | 0.009 | 0.0048 | 0.015 | COCC1=C(C(=O)OC)[C@H](c2ccc(F)c(F)c2)N(C(=O)N[C@H]2CC[C@H](N3CCN(c4ccccc4C#N)CC3)C2)C(=O)N1
2 | 0.62 | 0.001 | 1.9 | COCC1=C(C(=O)OC)[C@H](c2ccc(F)c(F)c2)N(C(=O)N[C@@H]2CC[C@H](N3CCC(C#N)(c4ccccc4)CC3)C2)C(=O)N1
3 | 0.0075 | 0.0016 | 0.028 | COCC1=C(C(=O)OC)[C@H](c2ccc(F)c(F)c2)N(C(=O)N[C@@H]2CC[C@H](N3CCN(c4ccccc4C#N)CC3)C2)C(=O)N1
4 | 0.011 | 0.0024 | 0.036 | COCC1=C(C(=O)OC)[C@H](c2ccc(F)c(F)c2)N(C(=O)N[C@H]2CC[C@H](N3CCC(c4ccccc4C#N)CC3)C2)C(=O)N1
5 | 0.5 | 0.00038 | 0.35 | COCC1=C(C(=O)OC)[C@H](c2ccc(F)c(F)c2)N(C(=O)N[C@@H]2CC[C@@H](N3CCC(c4ccccn4)CC3)C2)C(=O)N1
6 | 0.039 | 0.00044 | 0.051 | COCC1=C(C(=O)OC)[C@H](c2ccc(F)c(F)c2)N(C(=O)N[C@H]2CC[C@@H](N3CCN(c4ccccc4C#N)CC3)C2)C(=O)N1
7 | 0.016 | 0.00024 | 0.13 | COCC1=C(C(=O)OC)[C@H](c2ccc(F)c(F)c2)N(C(=O)N[C@@H]2CC[C@H](N3CCC(c4ccccc4C#N)CC3)C2)C(=O)N1
8 | 0.66 | 0.0024 | 0.73 | COCC1=C(C(=O)OC)[C@H](c2ccc(F)c(F)c2)N(C(=O)N[C@H]2CC[C@@H](N3CCC(C#N)(c4ccccc4)CC3)C2)C(=O)N1
9 | 0.66 | 0.00037 | 0.21 | COCC1=C(C(=O)OC)[C@H](c2ccc(F)c(F)c2)N(C(=O)N[C@@H]2CC[C@@H](N3CCC(C#N)(c4ccccc4)CC3)C2)C(=O)N1
10 | 0.095 | 0.0023 | 0.12 | COCC1=C(C(=O)OC)[C@H](c2ccc(F)c(F)c2)N(C(=O)N[C@H]2CC[C@H](N3CCC(C#N)(c4ccccc4)CC3)C2)C(=O)N1
11 | 0.031 | 0.00046 | 0.091 | COCC1=C(C(=O)OC)[C@H](c2ccc(F)c(F)c2)N(C(=O)N[C@@H]2CC[C@@H](N3CCC(c4ccccc4C#N)CC3)C2)C(=O)N1
12 | 0.32 | 0.0004 | 1.3 | COCC1=C(C(=O)OC)[C@H](c2ccc(F)c(F)c2)N(C(=O)N[C@@H]2CC[C@H](N3CCC(c4ccccn4)CC3)C2)C(=O)N1
13 | 0.097 | 0.0006 | 0.07 | COCC1=C(C(=O)OC)[C@H](c2ccc(F)c(F)c2)N(C(=O)N[C@H]2CC[C@@H](N3CCC(c4ccccc4C#N)CC3)C2)C(=O)N1
14 | 0.55 | 0.0047 | 0.29 | COCC1=C(C(=O)OC)[C@H](c2ccc(F)c(F)c2)N(C(=O)N[C@H]2CC[C@@H](N3CCC(c4ccccn4)CC3)C2)C(=O)N1
15 | 0.0054 | 0.0009 | 0.014 | COCC1=C(C(=O)OC)[C@H](c2ccc(F)c(F)c2)N(C(=O)N[C@@H]2CC[C@@H](N3CCN(c4ccccc4C#N)CC3)C2)C(=O)N1
16 | 0.17 | 0.0083 | 0.13 | COCC1=C(C(=O)OC)[C@H](c2ccc(F)c(F)c2)N(C(=O)N[C@H]2CC[C@H](N3CCC(c4ccccn4)CC3)C2)C(=O)N1
